From US9097722B2, “PARP substrates and biomarkers” (Board of Regents, The University of Texas System, priority 2012, dated 2015)
Entries after “also recorded” stand apart in the source; their conditions may differ.

Columns and labels:
[1] = tested on: PARP; test: Immunoblotting of protein PARylation in cells after MNNG or H2O2 treatment; assay type: cell-based, human; conditions: for H2O2-induced PARP activation (immunoblotting): 1 μM treatment
Excerpt: We sought to develop an approach towards a global characterization of Asp/Glu-ADP-ribosylation. […] The major cellular enzymatic activity for degrading PAR is from poly-ADP-ribose glycohydrolase (PARG)^2.
Cells and Reagents: HCT116 and HEK293T cells were purchased from ATCC and were maintained in Dulbecco's modified Eagle's medium (DMEM) supplemented with 10% fetal bovine serum. PARP inhibitors were purchased from Selleck. […] Other chemicals and reagents were obtained from Sigma unless indicated otherwise.
Immunoblotting analysis: Samples were subjected to electrophoresis using the standard SDS-PAGE method. Proteins were transferred to a nitrocellulose membrane (Whatman). Membranes were blocked with a TBST buffer (25 mM Tris-HCl, pH 7.5, 150 mM NaCl, 0.05% Tween 20) containing 3% nonfat dried milk, and probed overnight with primary antibodies at 4° C. and for 1 h at RT with peroxidase-conjugated secondary antibodies. Blots were developed using enhanced chemiluminescence, exposed on autoradiograph film and developed using standard methods.

[2] = tested on: PARP; test: SILAC quantitative mass spectrometric analysis of the Asp/Glu-ADP-ribosylated proteome in HCT116 shPARG cells; assay type: cell-based, human; conditions: for change in protein Asp/Glu-ADP-ribosylation compared with that of Olaparib: 1 μM
Experimental: SILAC cell culture: Cells (HCT116 shPARG) were grown in the SILAC media as described previously^23. Both light and heavy DMEM were supplemented with 10% dialyzed FBS (Invitrogen). Where indicated, cells were pretreated with 1 μM Olaparib for 40 min and were stimulated with 2 mM H2O2 for 5 min We performed two experiments using this experimental design with single labeling with Lys (sample digested with Lys-C) or double labeling with Lys and Arg (sample digested with trypsin). Each experiment was composed of two technical replicate analyses. The same experiment (Lys labeling only) was repeated for four other PARP inhibitors, including A966492 (1 μM), AG14361 (1 μM), Iniparib (50 μM) and 3-AB (50 μM).
Sample preparation for mass spectrometric analysis: Cells were lysed in SDS lysis buffer (1% SDS, 10 mM HEPES pH 7.0, 2 mM MgCl2, 500 U Benzonase). Lysates were washed with SDS lysis buffer for three times using centricon ultrafiltration units (MWCO=10,000 Da, Millipore). Lysates were reduced by adding DTT to a final concentration of 3 mM, followed by incubation at room temperature for 20 min Cysteines were alkylated by adding iodoacetamide to a final concentration of 50 mM, followed by incubation in the dark for 20 min Lysates were digested with LysC (Wako) or trypsin (Promega) at a 1:100 (enzyme:substrate) ratio for 2 hrs at RT. pH of the lysates were adjusted to 8.5 and the lysates were incubated with m-aminophenylborinic acid agarose for 1 hr at RT. Beads were washed with the SDS wash buffer (1% SDS, 100 mM HEPES pH 8.5, 150 mM NaCl) for three times, and then the wash buffer (100 mM HEPES pH 8.5, 150 mM NaCl) for five times. Beads were incubated with 0.5 M NH2OH overnight. Released peptides were desalted on SepPak C18 columns (Waters) according to manufacturer's instructions.
Mass spectrometry analysis and data processing: Samples were analyzed by LC-MS/MS on an LTQ-Velos Pro Orbitrap mass spectrometer (Thermo Fischer Scientific, San Jose, Calif.) using a top twenty method^23. MS/MS spectra were searched against a composite database of the human IPI protein database and its reversed complement using the Sequest algorithm. Search parameters allowed for a static modification of 57.02146 Da for Cys and a dynamic modification of addition of 15.0109 Da to Asp and Glu, and, when applicable, the stable isotope (10.00827 Da) and (8.01420 Da) on Arg and Lys, respectively. […] Localization of ADP-ribosylation sites was assessed by the ModScore algorithm based on the observation of site-specific fragment ions^25. Sites with scores≧13 (p≦0.05) were considered localized. Peptide quantification was performed as previously described^23 and ADP-ribosylation motifs were extracted using the Motif-X algorithm using a significance threshold of P<0.001^26.

[3] = tested on: tankyrase; conditions: cited from earlier work
[4] = 1 μM Olaparib, 2 mM H2O2, HCT116 shPARG

With `CN(C)Cc1ccc(-c2nc3cccc4c3n2CCNC4=O)cc1` [AG14361] the “H2O2-induced PARP activation (immunoblotting)” value [1] was “potently inhibited” and the “change in protein Asp/Glu-ADP-ribosylation compared with that of Olaparib” value [2] was “correlated well”.
With `NC(=O)c1ccc(I)c([N+](=O)[O-])c1` [Iniparib] the “H2O2-induced hyper-PARylation / PARP activity (immunoblotting)” value ([1]; 50 μM) was “little effect”, the “change in ADP-ribosylation level of most of the identified peptides” value ([2]; Iniparib 50 μM) was “less than two fold” and the “decrease of a peptide from the RNA helicase DDX21” value ([2]; Iniparib 50 μM) was “about 4 fold”. For the same molecule, the “effect on PARP activity in intact cells” value ([2]; Iniparib 50 μM) was “negligible effect; also recorded: failed to inhibit PARP” and the “potency relative to 3-AB” value ([2]; Iniparib 50 μM, 3-AB 50 μM) was “lower than the prototype PARP inhibitor 3-AB”.
With `NC(=O)c1cccc2[nH]c(-c3ccc([C@@H]4CCCN4)cc3F)nc12` [A96692] the “H2O2-induced PARP activation (immunoblotting)” value [1] was “potently inhibited” and the “change in protein Asp/Glu-ADP-ribosylation compared with that of Olaparib” value [2] was “correlated well”.
In the case of `O=C(c1cc(Cc2n[nH]c(=O)c3ccccc23)ccc1F)N1CCN(C(=O)C2CC2)CC1` [Olaparib], the “increased PARylation after MNNG or H2O2 treatment” value ([1]; PARG-depleted cells, pretreatment with the inhibitor) is reported as “blocked”, the “decrease of a peptide from the RNA helicase DDX21” value ([2]; 1 μM Olaparib) is reported as “more than 11 fold” and the “modified peptides whose intensity decreased by more than two-fold” value ([2]; 1 μM Olaparib 40 min pretreatment, 2 mM H2O2 5 min, HCT116 shPARG) is reported as “more than 81%”. For the same molecule, the “ADP-ribosylation of two evolutionarily conserved Glu residues on PCNA” value [2, 4] was “dramatically decreased”, the “ADP-ribosylation of two tankyrase substrates, CASC3 and BLZF1” value [2, 4] was “little change” and the “decrease in level of PARP1 automodified peptide comprising E483” value [2, 4] was “approximately 120 fold”. The “sensitivity of the majority of PARylation events to treatment” value ([2]; quantitative mass spectrometric analysis) was “sensitive” and the inhibition of tankyrase [3] was “does not inhibit”.
